Data taken from ChEMBL document CHEMBL1201862, “PubChem BioAssay data set” (2004).
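Tested at 5 concentrations; 48 h exposure; 96-well plates; endpoints linearly interpolated, else capped at highest concentration. GI50 is the concentration that inhibits growth by half.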 Activity calls are given as the source filed them. Cut-off read from the data, not from the text of the source: active = GI50 up to about 1.1 µM and inactive = higher.

Key:
Test in all cases: NCI anticancer screen, dose series, 48 h
786-0 = system: 786-0
A549 = system: A549
ACHN = system: ACHN
BT-549 = system: BT-549
CAKI-1 = system: CAKI-1
CCRF-CEM = system: CCRF-CEM
COLO 205 = system: COLO 205
DU-145 = system: DU-145
EKVX = system: EKVX
HCC 2998 = system: HCC 2998
HCT-116 = system: HCT-116
HCT-15 = system: HCT-15
HL-60 = system: HL-60
HOP-62 = system: HOP-62
HOP-92 = system: HOP-92
HT-29 = system: HT-29
Hs-578T = system: Hs-578T
IGROV-1 = system: IGROV-1
K562 = system: K562
KM12 = system: KM12
LOX IMVI = system: LOX IMVI
M14 = system: M14
MCF7 = system: MCF7
MDA-MB-231 = system: MDA-MB-231
MDA-MB-435 = system: MDA-MB-435
MDA-N = system: MDA-N
MOLT-4 = system: MOLT-4
Malme-3M = system: Malme-3M
NCI-H226 = system: NCI-H226
NCI-H23 = system: NCI-H23
NCI-H460 = system: NCI-H460
NCI/ADR-RES = system: NCI/ADR-RES
OVCAR-3 = system: OVCAR-3
OVCAR-4 = system: OVCAR-4
OVCAR-5 = system: OVCAR-5
OVCAR-8 = system: OVCAR-8
PC-3 = system: PC-3
RPMI-8226 = system: RPMI-8226
RXF 393 = system: RXF 393
SF-268 = system: SF-268
SF-295 = system: SF-295
SF-539 = system: SF-539
SK-MEL-28 = system: SK-MEL-28
SK-MEL-2 = system: SK-MEL-2
SK-MEL-5 = system: SK-MEL-5
SN12C = system: SN12C
SNB-19 = system: SNB-19
SNB-75 = system: SNB-75
SR = system: SR
SW-620 = system: SW-620
T47D = system: T47D
TK-10 = system: TK-10
UACC-257 = system: UACC-257
UACC-62 = system: UACC-62
A498 = system: A498
NCI-H522 = system: NCI-H522
SK-OV-3 = system: SK-OV-3
U-251 = system: U-251
UO-31 = system: UO-31

Measured: GI50

Cc1nn(C(=O)c2ccncc2)c2c1C(c1ccccc1[N+](=O)[O-])SC(=N)N2 (configuration not stated)
> 10 µM: HCT-15
inactive: 786-0 > 10 µM | A549 > 10 µM | ACHN > 10 µM | BT-549 > 10 µM | CAKI-1 > 10 µM | CCRF-CEM 8.24 µM | COLO 205 > 10 µM | DU-145 > 10 µM | EKVX > 10 µM | HCC 2998 > 10 µM | HCT-116 > 10 µM | HL-60 > 10 µM | HOP-62 > 10 µM | HOP-92 > 10 µM | HT-29 > 10 µM | Hs-578T > 10 µM | IGROV-1 > 10 µM | K562 > 10 µM | KM12 > 10 µM | LOX IMVI > 10 µM | M14 > 10 µM | MCF7 > 10 µM | MDA-MB-231 > 10 µM | MDA-MB-435 > 10 µM | MDA-N > 10 µM | MOLT-4 > 10 µM | Malme-3M > 10 µM | NCI-H226 > 10 µM | NCI-H23 > 10 µM | NCI-H460 > 10 µM | NCI/ADR-RES > 10 µM | OVCAR-3 > 10 µM | OVCAR-4 > 10 µM | OVCAR-5 > 10 µM | OVCAR-8 > 10 µM | PC-3 > 10 µM | RPMI-8226 > 10 µM | RXF 393 > 10 µM | SF-268 > 10 µM | SF-295 > 10 µM | SF-539 > 10 µM | SK-MEL-28 > 10 µM | SK-MEL-2 > 10 µM | SK-MEL-5 > 10 µM | SN12C > 10 µM | SNB-19 > 10 µM | SNB-75 > 10 µM | SR > 10 µM | SW-620 > 10 µM | T47D > 10 µM | TK-10 > 10 µM | UACC-257 > 10 µM | UACC-62 > 10 µM

CC(C)(C)OC(=O)NCCC1CNc2ccccc21 (configuration not stated)
inactive: 786-0 > 100 µM | A498 > 100 µM | A549 > 100 µM | ACHN > 100 µM | BT-549 > 100 µM | CAKI-1 > 100 µM | COLO 205 > 100 µM | DU-145 > 100 µM | EKVX > 100 µM | HCC 2998 > 100 µM | HCT-116 > 100 µM | HOP-62 > 100 µM | HOP-92 93.1 µM | HT-29 > 100 µM | Hs-578T > 100 µM | IGROV-1 > 100 µM | K562 > 100 µM | KM12 > 100 µM | M14 > 100 µM | MCF7 > 100 µM | MDA-MB-231 > 100 µM | MDA-MB-435 > 100 µM | MDA-N > 100 µM | MOLT-4 > 100 µM | Malme-3M > 100 µM | NCI-H23 > 100 µM | NCI-H460 > 100 µM | NCI-H522 > 100 µM | NCI/ADR-RES > 100 µM | OVCAR-3 > 100 µM | OVCAR-4 > 100 µM | OVCAR-5 > 100 µM | OVCAR-8 > 100 µM | PC-3 > 100 µM | RPMI-8226 > 100 µM | RXF 393 > 100 µM | SF-268 > 100 µM | SF-295 > 100 µM | SK-MEL-28 > 100 µM | SK-MEL-2 > 100 µM | SK-MEL-5 > 100 µM | SK-OV-3 > 100 µM | SNB-19 > 100 µM | SNB-75 > 100 µM | SW-620 > 100 µM | T47D > 100 µM | TK-10 > 100 µM | U-251 > 100 µM | UACC-257 > 100 µM | UACC-62 > 100 µM | UO-31 > 100 µM
> 100 µM: HCT-15

CC1=C(C(=O)NCCCN(CCO)CCO)CC(C(=O)NCCCN(CCO)CCO)=C(C)N1
> 100 µM: HCT-15
inactive: 786-0 > 100 µM | A498 27.4 µM | A549 > 100 µM | ACHN 97.1 µM | BT-549 > 100 µM | CAKI-1 > 100 µM | CCRF-CEM 19.1 µM | COLO 205 > 100 µM | DU-145 > 100 µM | EKVX > 100 µM | HCC 2998 > 100 µM | HCT-116 > 100 µM | HL-60 > 100 µM | HOP-62 > 100 µM | HOP-92 54.6 µM | HT-29 > 100 µM | Hs-578T 29.1 µM | IGROV-1 > 100 µM | K562 > 100 µM | KM12 85.1 µM | LOX IMVI > 100 µM | M14 > 100 µM | MCF7 > 100 µM | MDA-MB-231 40.7 µM | MDA-MB-435 56 µM | MDA-N 86.1 µM | MOLT-4 > 100 µM | NCI-H226 > 100 µM | NCI-H23 > 100 µM | NCI-H460 > 100 µM | NCI-H522 98.9 µM | NCI/ADR-RES > 100 µM | OVCAR-3 > 100 µM | OVCAR-4 > 100 µM | OVCAR-5 > 100 µM | OVCAR-8 > 100 µM | PC-3 59.8 µM | RPMI-8226 76 µM | RXF 393 26.4 µM | SF-268 34.8 µM | SF-295 > 100 µM | SF-539 > 100 µM | SK-MEL-2 > 100 µM | SK-MEL-5 22.2 µM | SK-OV-3 > 100 µM | SN12C > 100 µM | SNB-19 66.4 µM | SNB-75 15.2 µM | SW-620 > 100 µM | T47D 62.1 µM | TK-10 > 100 µM | U-251 > 100 µM | UACC-257 > 100 µM | UACC-62 > 100 µM | UO-31 93.5 µM
